{"source": "patent US7875638B2", "about": "“Synthesis of epothilones, intermediates thereto, analogues and uses thereof” (Sloan-Kettering Institute for Cancer Research, priority 2002, dated 2011)", "key": {"[1]": {"test_system": "SKOV3", "assay": "XTT cell growth inhibition, SKOV3", "type": "cell-based", "conditions": "Homo sapiens, SK-OV-3, read-out: IC50 (nM), SKOV3"}, "[2]": {"test_system": "human mammary carcinoma MX-1 xenograft", "assay": "MX-1 xenograft in nude mice", "conditions": "mouse, in vivo"}, "[3]": {"test_system": "CAG", "assay": "XTT cell growth inhibition, CAG", "type": "cell-based", "conditions": "Homo sapiens, read-out: IC50 (nM), CAG"}, "[4]": {"test_system": "MDA MB435", "assay": "XTT cell growth inhibition, MDA MB435", "type": "cell-based", "conditions": "Homo sapiens, MDA-MB-435, read-out: IC50 (nM), MDA MB435"}, "[5]": {"assay": "in vitro", "conditions": "human, s9", "method": "Stability of epothilones in mouse and in human liver S9 fraction. The stability study was carried out with a fully automated HPLC system which consisted of a Prospekt-2 (Spark Holland, Netherlands) sample preparation system and an Agilent 1100 HPLC system. Briefly, the Prospekt 2 picked up a C8 extraction cartridge and washed it with acetonitrile and water. The Agilent autosampler, set at 37° C., picked up 20 μl of the sample, loaded it onto the cartridge, washed it with water, then the Prospekt-2 diverted the mobile phase stream through the extraction cartridge onto the analytical column, Reliance Stable Bond C8 4×80 mm with guard column (MacMod, Chadds Ford, Pa.) and the eluent was monitored at 250 nm. […] Sample preparation involved the addition of equal volumes of plasma to PBS for a total volume of 300-400 μl, filtered, and the addition of 0.5-2 μl of the substrate (20 mM) to achieve about 30-50 mAU at 250 nm in the HPLC analysis. For pooled human liver microsome S9 fraction (Xeno Tech, Lenex, Kans.), 20 μl (400 μg) or S9 fraction was mixed with 280 μl of PBS then proceeded as above. The sampling period was controlled by the autosampler and peak area data were collected to compare the rate of disappearance of the parent compound.\nStability of epothilones in mouse and in human liver S9 fraction: The stability study was carried out with a fully automated HPLC system which consisted of a Prospekt-2 (Spark Holland, Netherlands) sample preparation system and an Agilent 1100 HPLC system. Briefly, the Prospekt 2 picked up a C8 extraction cartridge and washed it with acetonitrile and water. The Agilent autosampler, set at 37° C., picked up 20 μl of the sample, loaded it onto the cartridge, washed it with water, then the Prospekt-2 diverted the mobile phase stream through the extraction cartridge onto the analytical column, Reliance Stable Bond C8 4×80 mm with guard column (MacMod, Chadds Ford, Pa.) and the eluent was monitored at 250 nm. […] Sample preparation involves the addition of equal volumes of plasma to PBS for a total volume of 400 μl, filtered, and the addition of 0.5-2 μl of the substrate (20 mM) to achieve about 30-50 mAU at 250 nm in the HPLC analysis. For pooled human liver microsome S9 fraction (Xeno Tech, Lenex, Kans.), 20 μl (400 μg) or S9 fraction was mixed with 280 μl of PBS then proceeds as above. The sampling period was controlled by the autosampler and peak area data were collected to compare the rate of disappearance of the parent compound."}, "[6]": {"test_system": "human lung carcinoma xenograft (A549)", "assay": "A549 xenograft in nude mice", "conditions": "29: after two more doses; dEpoB: 30 mg/kg, Q2Dx6"}, "[7]": {"test_system": "CAG myeloma cell lines", "assay": "Cell cycle analysis (propidium iodide DNA staining), CAG", "type": "cell-based, human", "conditions": "31.25 nM", "from_the_text": "CAG myeloma cell lines were used."}, "[8]": {"test_system": "RPMI8226 myeloma cell lines", "assay": "Cell cycle analysis (propidium iodide DNA staining), RPMI8226", "type": "cell-based, human", "conditions": "31.25 nM", "from_the_text": "RPMI8226 myeloma cell lines were used."}, "[9]": {"test_system": "RPMI8226 myeloma cells", "assay": "Pulse exposure, washout and cell count", "type": "cell-based, human"}, "[10]": {"test_system": "human mammary carcinoma MX-1 xenograft", "conditions": "mouse, in vivo"}, "[11]": {"test_system": "MRC-5", "assay": "XTT cell growth inhibition, MRC-5", "type": "cell-based, human", "conditions": "Homo sapiens, MRC5, read-out: IC50 (nM), MRC-5"}, "[12]": {"test_system": "RPMI8226 myeloma cell line", "assay": "Annexin V staining, RPMI8226", "type": "cell-based, human", "conditions": "24 hours treatment", "from_the_text": "(§1) In early apoptotic cells, the membrance phospholipids phosphatidylserine (PS) is translocated from the inner to the outer leaflet of the plasma membrane, thereby exposing PS to the external cellular environment. Annexin V is a 35-36 kD Ca^+2 dependent phospholipid-binding protein that has a high affinity for PS, and binds to cells with exposed PS. In conjunction with a vital dye such as 7-amino-actinomycin (7-AAD) staining dead cells, this assay allows the identification of early apoptotic cells."}, "[13]": {"test_system": "Ovarian cancer lines", "assay": "XTT cell growth inhibition, ovarian cancer lines (mean)", "type": "cell-based", "conditions": "Homo sapiens, read-out: Mean IC50, ovarian lines"}, "[14]": {"test_system": "CCRF-CEM"}, "[15]": {"test_system": "Ovcar-4", "assay": "XTT cell growth inhibition, Ovcar-4", "type": "cell-based", "conditions": "Homo sapiens, OVCAR-4, read-out: IC50 (nM), Ovcar-4"}, "[16]": {"test_system": "Human CD34+ stem cells", "assay": "Apoptosis and 2 weeks progenitor assays on CD34+ stem cells", "type": "cell-based", "conditions": "24 hours incubation, umbilical cord blood CD34+", "experimental": "Then drugs were washed out and annexin V staining was performed. Solid area represents vehicle control and open area represents drug treated group. There is no obvious increased apoptosis of non-cycling human CD34+ cells with short period of exposure to epothilones.\nDrug cytotoxicity to hematopoietic stem cells is always a major concern. Human CD34+ stem cells were isolated from umbilical cord blood and incubated with either dEpoB or Fludelone alone for 24 hours. After washing out the drugs, apoptosis assays and 2 weeks progenitor assays were performed to evaluate the influence of epothilone to stem cells."}, "[17]": {"test_system": "MOLP-5", "assay": "XTT cell growth inhibition, MOLP-5", "type": "cell-based", "conditions": "Homo sapiens, read-out: IC50 (nM), MOLP-5"}, "[18]": {"test_system": "HS-27A", "assay": "XTT cell growth inhibition, HS-27A", "type": "cell-based", "conditions": "Homo sapiens, read-out: IC50 (nM), HS-27A"}, "[19]": {"test_system": "CAG myeloma cells", "assay": "Disseminated CAG xenograft myeloma mice", "conditions": "20 mg/kg", "method": "10×10^6 CAG myeloma cells engineered with Luc-eGFP-TK fusion gene were injected intravenously into the mouse-tail vein, and the treatment was started when decent myeloma cells implantation was detected by bioluminescence imaging on day 7."}, "[20]": {"test_system": "myeloma cell lines (RPMI8226, CAG)", "assay": "XTT cell proliferation, myeloma cell lines", "type": "cell-based, human", "conditions": "Homo sapiens, RPMI-8226, read-out: IC50, myeloma cell lines (RPMI8226, CAG)"}, "[21]": {"test_system": "CAG myeloma cell lines", "assay": "Annexin V staining, CAG", "type": "cell-based, human", "conditions": "24 hours treatment", "from_the_text": "as §1, with “membrane” for “membrance”, “Ca^2+” for “Ca^+2”, “phospholipids-binding” for “phospholipid-binding”, “to identify” for “the identification of”, “cells. […] Note that X-axis is Annexin staining and Y-axis is 7-AAD staining.” for “cells.”"}, "[22]": {"test_system": "OPM-2", "assay": "XTT cell growth inhibition, OPM-2", "type": "cell-based", "conditions": "Homo sapiens, OPM-2, read-out: IC50 (nM), OPM-2"}, "[23]": {"test_system": "HCT-116", "assay": "XTT cell growth inhibition, HCT-116", "type": "cell-based", "conditions": "Homo sapiens, HCT-116, read-out: IC50 (nM), HCT-116"}, "[24]": {"test_system": "H929", "assay": "XTT cell growth inhibition, H929", "type": "cell-based", "conditions": "Homo sapiens, NCI-H929, read-out: IC50 (nM), H929"}, "[25]": {"test_system": "RL", "assay": "XTT cell growth inhibition, RL", "type": "cell-based", "conditions": "Homo sapiens, read-out: IC50 (nM), RL"}, "[26]": {"assay": "Solubility in water", "conditions": "water"}, "[27]": {"test_system": "primary CD138 MM cells", "assay": "Apoptosis of primary myeloma cells", "type": "cell-based, human", "conditions": "cells obtained from patient marrow"}, "[28]": {"test_system": "SKI-DLBCL", "assay": "XTT cell growth inhibition, SKI-DLBCL", "type": "cell-based", "conditions": "Homo sapiens; Lymphoma; XTT tetrazonium assay"}}, "note": "Read-outs that look alike come from different tables or passages of the source.", "data": [{"smiles": "C/C1=C/CC(/C(C)=C/c2csc(C)n2)OC(=O)C[C@H](O)C(C)(C)C(=O)[C@H](C)[C@@H](O)[C@@H](C)CCC1", "note": "(some centres unmarked) [Compound 1, 12,13-desoxyepothilone B, reference compound]", "values": [{"measurement": "IC50", "setting": "[1]", "value": "13 ± 4.7", "unit": "nM"}, {"measurement": "Changes of body weight (%) on day 4 after stopping administration", "setting": "[2]", "value": "−25.3 ± 2.1", "unit": "%"}, {"measurement": "Changes of body weight (%) on day 8 after stopping administration", "setting": "[2]", "value": "−9.1 ± 4.1", "unit": "%"}, {"measurement": "IC50", "setting": "[3]", "value": "61.3 ± 4.2", "unit": "nM"}, {"measurement": "IC50", "setting": "[4]", "value": "7.8 ± 4.2", "unit": "nM"}, {"measurement": "half-life", "setting": "[5]", "value": "1 ± 0.1", "unit": "h"}, {"measurement": "Tumor eradication", "setting": "[6]", "value": "no tumor eradication"}, {"measurement": "Cell cycle arrest", "setting": "[7]", "value": "absolutely blocked cell cycle at G2M phase"}, {"measurement": "Cell cycle arrest", "setting": "[8]", "value": "absolutely blocked cell cycle at G2M phase"}, {"measurement": "Decrease of the number of cells from input", "setting": "[9]; 4-8 hrs exposure, washout, incubation up to 48 hrs", "value": "slowed cell expansion"}, {"measurement": "Cell death after pulse exposure", "setting": "[9]; 24 hrs exposure", "value": "all cells being dead by 48 hrs"}, {"measurement": "Decrease of tumor cell numbers", "setting": "[9]; one hour exposure, washout, 48 hrs", "value": "reduced but did not prevent tumor cell expansion"}, {"measurement": "Decrease in body weight without lethality", "setting": "[10]", "value": 31, "unit": "%"}, {"measurement": "IC50", "setting": "[11]", "value": "8.2 ± 4.3", "unit": "nM"}, {"measurement": "Apoptosis (Annexin V / 7-AAD)", "setting": "[12]", "value": "majority of cell either enter apoptosis or are dead"}, {"measurement": "IC50", "setting": "[13]", "value": 16.5, "unit": "nM"}, {"measurement": "IC50", "setting": "[14]; human", "value": "0.0056 ± 0.0028", "unit": "µM"}, {"measurement": "IC50", "setting": "[14]; read-out: IC50 (μM), CCRF-CEM, XTT assay following 72 h inhibition, Table 1-2", "value": 0.0036, "unit": "µM"}, {"measurement": "IC50", "setting": "[14]; read-out: IC50, CCRF-CEM(C), XTT assay following 72 h inhibition, Table 1-3", "value": 0.0036, "unit": "µM"}, {"measurement": "IC50", "setting": "[14]; read-out: IC50, CCRF-CEM, XTT assay following 72 h inhibition, Table 1-4", "value": 0.0036, "unit": "µM"}, {"measurement": "IC50", "setting": "[15]", "value": "16 ± 2.5", "unit": "nM"}, {"measurement": "Toxicity on non-cycling stem cells", "setting": "[16]", "value": "no significant toxicity"}, {"measurement": "IC50", "setting": "[17]", "value": "68.6 ± 5.5", "unit": "nM"}, {"measurement": "IC50", "setting": "[18]", "value": "100 ± 10", "unit": "nM"}, {"measurement": "Survival after transplanting CAG cells (Kaplan-Meier)", "setting": "[19]", "value": "≤ 50", "unit": "days"}, {"measurement": "Survival versus controls", "setting": "[19]; intraperitoneal", "value": "no difference in survival"}, {"measurement": "IC50", "setting": "[20]", "value": "36.7 to 61.3", "unit": "nM"}, {"measurement": "Apoptosis (Annexin V / 7-AAD)", "setting": "[21]", "value": "majority of cells either enter apoptosis or are dead"}, {"measurement": "IC50", "setting": "[22]", "value": "38.9 ± 3.3", "unit": "nM"}, {"measurement": "IC50", "setting": "[23]", "value": "7.5 ± 3.1", "unit": "nM"}, {"measurement": "IC50", "setting": "[24]", "value": "42.8 ± 4.5", "unit": "nM"}, {"measurement": "IC50", "setting": "[25]", "value": "90 ± 11", "unit": "nM"}, {"measurement": "solubility", "setting": "[26]", "value": 9.4, "unit": "µg/mL"}, {"measurement": "Tumor apoptosis within 24 hrs", "setting": "[27]", "value": "not"}, {"measurement": "IC50", "setting": "[28]", "value": "72 ± 9.8", "unit": "nM"}]}]}
